# Values quoted from earlier work in patent US4285947A, “Aldehyde adducts of triamterene” (INTERx Research Corporation, priority 1980, dated 1981).
# Assays:
# [1] = following the recommended clinical dose
# [2] = not given; remark: listed apart in the source
compound,measurement,setting,value
"Nc1nc(N)c2nc(-c3ccccc3)c(N)nc2n1 [triamterene, 2,4,7-triamino-6-phenylpteridine]",plasma and urine concentration,[1],extremely low
same,aqueous solubility,,45 µg/mL
same,solubility in lipid-like solvents,[2],limited solubility
